Source: patent US6645490B2, “Chimeric proteins with cell-targeting specificity and apoptosis-inducing activities” (priority 1998, dated 2003)

Assays:
[1] = tested on: Human peripheral blood lymphocytes; experiment: Assay for identifying apoptotic cells, FACS of fresh lymphocytes; type: cell-based; parameters: unit not given here; details: for M1-2 / M1 / M2: Experiment No. 1; for M1 / M2 / UL / UR: mean of duplicates; for UL + UR / UL / UR: Experiment No. 2
Description: Human peripheral blood lymphocytes from healthy donors were separated using Ficoll-Isopaque gradient (1.077) (Pharmacia) and used immediately. Lymphocytes were cultured in 5% CO2 in air in RPMI 1640 medium supplemented with 10% fetal calf serum, 200 μg/ml L-glutamate, 50 μg/ml penicillin, 50 μg/ml streptomycin, 50 μg/ml glutamine and 5×10^−5 M 2-β mercaptoethanol. Increasing concentrations of IL2-Bax (insoluble fraction, 6M Gu-HCl treated) were added to the lymphocytes for 22 hr. Cells were then stained with:
A. Propidium Iodide (PI, 3.5 μg/ml)
B. Propidium Iodide with a detergent for measuring cell cycle (0.7 ml of the PI buffer: 50 μg/ml PI, 0.1% Nacitrate, 0.1% Triton×100, were added to a cell pellet of ˜10^6 cells). Cells were then analyzed by FACS.

[2] = tested on: MT-1 cells; experiment: Cytotoxicity assay, [3H] leucine incorporation (inhibition of protein synthesis); type: cell-based, human; details: MT-1, IL2R-expressing; FIG. 5A
Description: (§1) Cells (10^4 in 0.2 ml culture medium) were seeded in 96-well microplates, followed by the addition of various concentrations of the chimeric protein (diluted with 0.25% BSA in PBS). After a 24 hour incubation, [^3H] leucine (2-5 uci/well) were added for 6-13 hr. The plates were then stored at −70° C. for several hours, followed by quick thawing at 37° C. This step was omitted with targets cells growing in suspension. The cells were harvested on filters and the incorporated radioactivity was measured with a β counter. Results were expressed as the percent incorporation of the control experiments in which the cells were not exposed to any protein. All assays were carried out in triplicates.
(§2) The cytotoxic activity of the IL2-Bax chimeric protein was tested on HUT102 and MT-1 cells (human T-cell lines), and 2B4 cells (mouse T-cells); all known to express the high affinity receptor for IL2, by a quantitative assay, in which inhibition of protein synthesis was measured. The soluble and insoluble fractions generated from treatment under three different conditions were tested in cytotoxicity assays as described by Lorberboum-Galski et al. (1988, J. Biol. Chem. 263:18650-18656). […] This may be attributed to the different number of IL2R expressed on each cell line. […]

[3] = tested on: HUT102 cells; experiment: as above; type: cell-based, human; details: HUT102, IL2R-expressing; FIG. 5A
Description: as §1, §2

[4] = tested on: Km3; experiment: as above; type: cell-based, human; details: Km3, IL2R negative; FIG. 5B
Description: as §1
(§3) The effects of IL2-Bax were also tested on various IL2R negative cells: CEM cells (a human T-cell line lacking the IL2R) and Km3 (a human non-T, non-B stem cell line). […] Since the fraction treated with Gu-HCl was active without any non-specific cytotoxicity, this fraction was further used in subsequent experiments.

[5] = tested on: CEM cells; experiment: as above; type: cell-based, human; details: lacking the IL2R, FIG. 5B
Description: as §1, §3

[6] = tested on: 2B4 cells; experiment: as above; type: cell-based, mouse; details: 2B4, IL2R-expressing; FIG. 5A
Description: as §1, §2

[7] = tested on: HUT102 cells; experiment: Assay for identifying apoptotic cells, FACS (PI fluorescence of nuclei); type: cell-based, human; details: highest concentration tested, overnight
Description: (§4) HUT102 cells (target T cells) and CEM cells (non-target T cells) were incubated overnight with increasing concentrations of IL2-Bax. The 200×g centrifuged cell pellet was fixed in 2 ml cold 70% ethanol at 4° C. for 60 min. The cells were then centrifuged, washed in 1 ml PBS and resuspended in 0.5 ml PBS. 0.5 ml RNAse (Type I-A, Sigma, St. Louis, Mo., 1 mg/ml in PBS) was added to the sample, followed by gentle mixing with 1 ml PI (Sigma, 100 μg/ml PBS) solution. The mixed cells were incubated in the dark at room temperature for 15 min. and kept at 4° C. in the dark until measured. The PI fluorescence of the individual nuclei was measured using FACS flow cytometer. The forward scatter and side scatter of particles were simultaneously measured. Cell debris were excluded from analysis by appropriately raising the forward scatter threshold (Nicoletti et al., 1991, J. Immunol. Meth. 139:271-279).

[8] = tested on: CEM cells; experiment: as above; type: cell-based, human; details: CEM cells lacking IL2R expression; FIGS. 9A-9C
Description: as §4

C[C@@H]1C[C@H]2[C@@H]3CCC4=CC(=O)C=C[C@]4(C)[C@@]3(F)[C@@H](O)C[C@]2(C)[C@@]1(O)C(=O)CO [dexamethasone, reference compound]
M1-2 ([1]; dexamethasone (10^-7 M)): 6.7 | M1 ([1]; dexamethasone (10^-7 M)): 9.5 | M2 ([1]; dexamethasone (10^-7 M)): 2.8

IL2-Bax
Cytotoxic activity (inhibition of protein synthesis) [2]: responsive to the chimeric protein in a dose dependent manner | Cytotoxic activity (inhibition of protein synthesis) [3]: responsive to the chimeric protein in a dose dependent manner | Cytotoxic activity (inhibition of protein synthesis) [4]: unaffected | Cytotoxic activity (inhibition of protein synthesis) [5]: unaffected | Cytotoxic activity (inhibition of protein synthesis) [6]: responsive to the chimeric protein in a dose dependent manner | M1-2 ([1]; 1 μg, 22 hr): 13.5 | M1 ([1]; 1 μg, 22 hr): 17.5 | M2 ([1]; 1 μg, 22 hr): 4 | M1-2 ([1]; 5 μg, 22 hr): 20 | M1 ([1]; 5 μg, 22 hr): 24.3 | M2 ([1]; 5 μg, 22 hr): 4.3 | M1-2 ([1]; 10 μg, 22 hr): 35 | M1 ([1]; 10 μg, 22 hr): 42.1 | M2 ([1]; 10 μg, 22 hr): 9.1 | UL + UR ([1]; 1 μg, 22 hr): 10.54 | UL ([1]; 1 μg, 22 hr): 4.98 | UR ([1]; 1 μg, 22 hr): 5.56 | UL + UR ([1]; 10 μg, 22 hr): 31.55 | UL ([1]; 10 μg, 22 hr): 14.71 | UR ([1]; 10 μg, 22 hr): 16.84 | Increase in the percentage of the apoptotic-cell population (sub-G1, M1) [7]: 3.6 fold | Increase in the apoptotic cell population [8]: did not show an increase in the apoptotic cell population
